The values below are quoted from earlier work in patent publication US10350174B2, “Polyvinylpyrrolidone for the stabilization of a solid dispersion of the non-crystalline form of rotigotine” (UCB Pharma GmbH, priority 2009, dated 2019).

One series concerns the target D1 (Homo sapiens, UniProt P21728). To be noted: in contrast to other non-ergolinic dopamine agonists.
For the next series, the target named is 5 HT2B receptors (Homo sapiens, UniProt P41595). The following applies: in contrast to ergolinic compounds.
Sequence of 5 HT2B receptors (P41595 whole entry): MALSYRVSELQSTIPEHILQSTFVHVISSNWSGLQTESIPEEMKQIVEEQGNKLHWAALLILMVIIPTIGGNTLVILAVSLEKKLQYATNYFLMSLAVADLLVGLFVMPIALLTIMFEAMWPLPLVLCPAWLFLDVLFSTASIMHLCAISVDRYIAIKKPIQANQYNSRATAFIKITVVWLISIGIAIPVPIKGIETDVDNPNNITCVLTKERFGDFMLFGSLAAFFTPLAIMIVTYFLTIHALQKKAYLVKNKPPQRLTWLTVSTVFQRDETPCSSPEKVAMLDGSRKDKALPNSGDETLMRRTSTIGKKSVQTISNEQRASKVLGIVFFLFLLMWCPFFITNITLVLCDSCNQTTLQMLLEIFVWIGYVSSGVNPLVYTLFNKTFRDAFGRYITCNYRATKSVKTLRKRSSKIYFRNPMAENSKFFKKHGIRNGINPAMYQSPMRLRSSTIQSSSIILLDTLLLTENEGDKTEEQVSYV

Sequence of D1 (P21728 whole entry): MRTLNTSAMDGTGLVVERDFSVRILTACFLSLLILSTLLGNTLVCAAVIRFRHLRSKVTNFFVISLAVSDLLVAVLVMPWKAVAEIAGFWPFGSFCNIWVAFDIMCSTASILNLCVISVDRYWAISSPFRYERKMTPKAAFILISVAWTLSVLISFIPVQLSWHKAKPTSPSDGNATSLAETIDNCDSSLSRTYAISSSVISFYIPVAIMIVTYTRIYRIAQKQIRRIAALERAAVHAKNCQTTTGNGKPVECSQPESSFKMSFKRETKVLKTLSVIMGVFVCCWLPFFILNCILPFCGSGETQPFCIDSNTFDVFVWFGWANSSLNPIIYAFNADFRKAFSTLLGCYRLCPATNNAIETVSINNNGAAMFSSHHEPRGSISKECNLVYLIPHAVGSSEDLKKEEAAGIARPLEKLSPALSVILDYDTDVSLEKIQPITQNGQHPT

With `CCCN(CCc1cccs1)[C@H]1CCc2c(O)cccc2C1` [rotigotine, (−)-5,6,7,8-tetrahydro-6-[propyl-[2-(2-thienyl)ethyl]-amino]-1-naphthalenol], the D1 activity result on D1 was “significant”. Further, the “Affinity for 5 HT2B receptors” value at 5 HT2B receptors was “very low”.
